Data set [1] has as its system BT-474. The experiment in a line: Cell viability (cytotoxicity) assay with MTT. The class given is cell-based. The following applies: for TOXICITY 1uM BT-474 (% viab. approx .): approximate viability percentage. As for the experimental part:
(§1) In order to determine the toxicity of the compound, cell viability assays were performed with MTT on breast tumour lines MCF-7, BT-474 and MDA-MB-436. […] The fact that cell viability was not affected at a high concentration reflects the low toxicity of the compound at the dose required for its effectiveness in functional assays.

Data set [2] relates to MCF-7. The experiment in a line: Cell viability (cytotoxicity) assay with MTT. The class given is cell-based. Particulars: for TOXICITY 1uM MCF-7 (% viab. approx .): approximate viability percentage. The method, then: as §1
In data set [3] the test system is MCF-7. The experiment in a line: Sphere test (formation of tumour mammospheres). Type of data set: cell-based. Details: ACTIVITY IN SPHERE TEST % sphere formation MCF-7: concentration or dose not given beside the values. Particulars: for ACTIVITY IN SPHERE TEST % sphere formation MCF-7: MCF-7 mammospheres, 7 days in suspension culture. From the text: (§2) The formation of spheres derived from breast tumours has been described as an effective method for enrichment of cell cultures in CSCs because of the higher ability of cells derived from these culture in generating tumours in vivo when transplanted in immunocompromised mice (Ponti D, et al., (2005) Cancer Res 65(13):5506-11, 34). A directly proportional relationship is therefore established between the percentage of the CSCs subpopulation in the culture and the ability to form spheres. Tumour cell lines growing in suspension are used in these tests in order to enrich the culture in tumour stem cells. CSCs are the only cells capable of proliferating in these conditions, giving rise to structures named spheres. In fact, the cells that grow in suspension acquire the properties of tumour stem cells and are used in the assays used in this patent for identifying drugs effective against them. In principle, compounds that affect tumour stem cells should slow their growth and potentially cause their death. This assay is tuned for breast cancer cell lines according to Leis, O., et al (2012), Oncogene, 31, 1354-1365. Cells are seeded at a density of 1,000 cells/mL on 6-well plates, previously treated with poly-HEMA (poly(2-hydroxyethyl methacrylate)), Sigma-Aldrich) to prevent the cells adhering to the plastic of the plate. A DMEM high glucose medium supplemented with F12 (Nutrient Mixture F-12 HAM, Sigma), B27 (B27 Supplement 50X, Gibco 17504-044) and growth factors, EGF and bFGF is used for culture. Methylcellulose at a final concentration of 0.5% was added to increase the viscosity of the culture medium. Cells were incubated for 7 days at 37° C, adding growth factors (20 ng/mL of each factor), every two days and counted under a microscope.

Data set [4] concerns BT474. Description: Sphere test (formation of tumour mammospheres). The class given is cell-based. Details: ACTIVITY IN SPHERE TEST % sphere formation BT474: concentration or dose not given beside the values. Particulars: for ACTIVITY IN SPHERE TEST % sphere formation BT474: BT474 mammospheres, 7 days in suspension culture.
Text: as §2

For data set [5], the system named is MDA-MB-436. Description: Sphere test (formation of tumour mammospheres). The class given is cell-based. The following applies: for ACTIVITY IN SPHERE TEST % sphere formation MDA-MB-436: MDA-MB-436 mammospheres, 7 days in suspension culture.
Text: as §2

The test system of data set [6] is MDA-MB-436. The experiment in a line: Cell viability (cytotoxicity) assay with MTT. Type of data set: cell-based. Particulars: 1µM and tenfold higher dose. The method, then: as §1
Data set [7] has as its system HIF. The experiment in a line: HRE-LUC test (9XHRE-LUC luciferase reporter of HIF activity in a breast tumour line). The class given is cell-based, human. Particulars: for inhibition at 5 µM: Homo sapiens, inhibition percentage, read-out: HIF HRE-LUC (% inhib. 5µM). The text has this:
In order to identify direct inhibitors of HIF activity, a breast tumour line MCF7 was first constructed containing the deoxyribonucleic acid sequences (DNA) of the region located between the positions -985 and -951 of the human vascular endothelium growth factor (hVEGF), repeated nine times (X9) and fused to the luciferase reporter gene (LUC) (Moreno-Manzano V, et al (2010) JBC 285 (2) 1333-1342). This plasmid called 9XHRE-LUC, kindly given by Dr Manuel Ortiz de Landazuri of the La Princesa Hospital of Madrid, was prepared using a commercial kit (Endofree Maxi-Prep; Qiagen, Inc., Valencia, CA). Transfections were performed with Lipofectamine (Invitrogen) according to the manufacturer's instructions.

The subject of data set [8] is SOX-2. The experiment in a line: Reporter of the promoter region of enhancer R1 of SOX-2 in a transiently transfected breast tumour line. Type of data set: cell-based. Particulars: breast tumour line MDA_MB-436 / HRE9X-LUC; cells cultivated in suspension; Fig. 2. From the text: In order to identify whether the direct inhibitors of mammosphere formation and HIF activity inhibited the transcriptional activation of SOX2, reported in breast cancer CSCs (Leis, O., et al (2012), Oncogene, 31, 1354-1365), breast tumour lines were constructed, transiently transfected with the promoter region of enhancer R1 of SOX-2 by Lipofectamine (Invitrogen) according to the manufacturer's instructions. Their induction on cultivating the cells in suspension was compared and the inhibition of this activation was measured on treating the cells with the inhibitor IQM11PS04.

The values below come from patent EP3031809A1, “2-phenyl-7,7a-dihydro-3aH-pyran[3,4-d]oxazol-6(4H)-ones” (CONSEJO SUPERIOR DE INVESTIGACIONES CIENTIFICAS, priority 2014, dated 2016).

`COc1cccc(C2=NC3COC(=O)CC3O2)c1` (stereo not shown) [IQM11PS01, 2-(3-methoxyphenyl)-7,7a-dihydro-3aH-pyrano[3,4-d]oxazole-6(4H)-one]: the “TOXICITY 1uM BT-474 (% viab. approx .)” value in data set [1] amounted to 97%. Moreover, in data set [2], the “TOXICITY 1uM MCF-7 (% viab. approx .)” value was found to be 115%. Also, the “ACTIVITY IN SPHERE TEST % sphere formation MCF-7” value in data set [3] was found to be 0%. Moreover, the “ACTIVITY IN SPHERE TEST % sphere formation BT474” value in data set [4] was 2%.

On to `COc1cc(OC)cc(C2=NC3COC(=O)CC3O2)c1` (stereo not shown) [IQM11PS02, 2-(3,5-dimethoxyphenyl)-7,7a-dihydro-3aH-pyrano[3,4-d]oxazole-6(4H)-one], for which, in data set [1], the “TOXICITY 1uM BT-474 (% viab. approx .)” value is given as 55%. In addition, the “TOXICITY 1uM MCF-7 (% viab. approx .)” value in data set [2] came out at 99%. Moreover, in data set [3], the “ACTIVITY IN SPHERE TEST % sphere formation MCF-7” value stood at 0%. Further, the “ACTIVITY IN SPHERE TEST % sphere formation BT474” value in data set [4] was 4%.

`O=C1CC2OC(c3cc(OCc4ccccc4)cc(OCc4ccccc4)c3)=NC2CO1` (stereo not shown) [IQM11PS03, 2-(3,5-bis(benzyloxy)phenyl)-7,7a-dihydro-3aH-pyrano[3,4-d]oxazole-6(4H)-one]: the “TOXICITY 1uM BT-474 (% viab. approx .)” value in data set [1] is recorded as 97%. In data set [2], the “TOXICITY 1uM MCF-7 (% viab. approx .)” value is 98%. Also, the “ACTIVITY IN SPHERE TEST % sphere formation MCF-7” value in data set [3] was determined as 0%. Besides, in data set [5], the “ACTIVITY IN SPHERE TEST % sphere formation MDA-MB-436” value is 88%. Moreover, the “ACTIVITY IN SPHERE TEST % sphere formation BT474” value in data set [4] was 12%.

Turning to `CCCOc1cccc(C2=NC3COC(=O)CC3O2)c1` (stereo not shown) [IQM11PS04, 2-(3-propoxyphenyl)-7,7a-dihydro-3aH-pyrano[3,4-d] oxazole-6(4H)-one], the “percentage of cell death in treated cultures” value in data set [1] (1µM and tenfold higher dose, BT-474) was “did not cause a significant increase”; in data set [2] (1µM and tenfold higher dose, MCF-7) it was “did not cause a significant increase”; in data set [6], “did not cause a significant increase”. In data set [1], the “TOXICITY 1uM BT-474 (% viab. approx .)” value is listed as 89%. Moreover, the “TOXICITY 1uM MCF-7 (% viab. approx .)” value in data set [2] turned out to be 109%. Moreover, in data set [7] (1µM and tenfold higher dose), the “action on HIF-2α” value is listed as “significant action”. For the same molecule, the inhibition at 5 µM in data set [7] came to 92%. Moreover, in data set [7] (increasing concentrations, Fig. 1), the “inhibition in the expression of luciferase (HRE-LUC test)” value is on record as “significantly inhibits”. Besides, in data set [8], the “inhibition of the induction of SOX2 (expression of the promoter region of enhancer R1 of SOX-2)” value is recorded as “significantly inhibits”. Further, the “inhibitory ability in the formation of mammospheres” value in data set [3] (1 µM added in the final stage of sphere formation, MCF7, versus DMSO) is “significant inhibitory ability”; in data set [5] (1 µM added in the final stage of sphere formation, MDA-MB-436, versus DMSO), “significant inhibitory ability”; in data set [4] (1 µM added in the final stage of sphere formation, BT474, versus DMSO), “significant inhibitory ability”. Also, the “ACTIVITY IN SPHERE TEST % sphere formation MCF-7” value in data set [3] is 0%. In addition, the “ACTIVITY IN SPHERE TEST % sphere formation BT474” value in data set [4] is 1%.

Regarding `CCCCCOc1cccc(C2=NC3COC(=O)CC3O2)c1` (stereo not shown) [IQM11PS05, 2-(3-pentyloxyphenyl)-7,7a-dihydro-3aH-pyrano[3,4-d]oxazole-6(4H)-one], the “TOXICITY 1uM BT-474 (% viab. approx .)” value in data set [1] is recorded as 168%. Moreover, the “TOXICITY 1uM MCF-7 (% viab. approx .)” value in data set [2] turned out to be 92%. In data set [7], the inhibition at 5 µM amounted to 96%. Also, the “ACTIVITY IN SPHERE TEST % sphere formation MCF-7” value in data set [3] came out at 0%. Moreover, the “ACTIVITY IN SPHERE TEST % sphere formation BT474” value in data set [4] amounted to 8%.

As to `O=C1CC2OC(c3cccc(OCCN4CCOCC4)c3)=NC2CO1` (stereo not shown) [IQM11PS06, 2-(3-(2-morpholinoethoxy)phenyl)-7,7a-dihydro-3aH-pyrano[3,4-d]oxazole-6(4H)-one], the “TOXICITY 1uM BT-474 (% viab. approx .)” value in data set [1] is recorded as 86%. In data set [2], the “TOXICITY 1uM MCF-7 (% viab. approx .)” value is 97%. In addition, the “ACTIVITY IN SPHERE TEST % sphere formation MCF-7” value in data set [3] was found to be 20%. For the same molecule, the “ACTIVITY IN SPHERE TEST % sphere formation MDA-MB-436” value in data set [5] was found to be 79%. For the same molecule, the “ACTIVITY IN SPHERE TEST % sphere formation BT474” value in data set [4] was found to be 27%.
